The record followed here is patent US10689366B2, “Compounds for MALT1 degredation” (Cornell University, priority 2016, dated 2020).

The target in assay [1] is T1, MALT1 (Homo sapiens, UniProt Q9UDY8).
T1 sequence (Q9UDY8 1-824): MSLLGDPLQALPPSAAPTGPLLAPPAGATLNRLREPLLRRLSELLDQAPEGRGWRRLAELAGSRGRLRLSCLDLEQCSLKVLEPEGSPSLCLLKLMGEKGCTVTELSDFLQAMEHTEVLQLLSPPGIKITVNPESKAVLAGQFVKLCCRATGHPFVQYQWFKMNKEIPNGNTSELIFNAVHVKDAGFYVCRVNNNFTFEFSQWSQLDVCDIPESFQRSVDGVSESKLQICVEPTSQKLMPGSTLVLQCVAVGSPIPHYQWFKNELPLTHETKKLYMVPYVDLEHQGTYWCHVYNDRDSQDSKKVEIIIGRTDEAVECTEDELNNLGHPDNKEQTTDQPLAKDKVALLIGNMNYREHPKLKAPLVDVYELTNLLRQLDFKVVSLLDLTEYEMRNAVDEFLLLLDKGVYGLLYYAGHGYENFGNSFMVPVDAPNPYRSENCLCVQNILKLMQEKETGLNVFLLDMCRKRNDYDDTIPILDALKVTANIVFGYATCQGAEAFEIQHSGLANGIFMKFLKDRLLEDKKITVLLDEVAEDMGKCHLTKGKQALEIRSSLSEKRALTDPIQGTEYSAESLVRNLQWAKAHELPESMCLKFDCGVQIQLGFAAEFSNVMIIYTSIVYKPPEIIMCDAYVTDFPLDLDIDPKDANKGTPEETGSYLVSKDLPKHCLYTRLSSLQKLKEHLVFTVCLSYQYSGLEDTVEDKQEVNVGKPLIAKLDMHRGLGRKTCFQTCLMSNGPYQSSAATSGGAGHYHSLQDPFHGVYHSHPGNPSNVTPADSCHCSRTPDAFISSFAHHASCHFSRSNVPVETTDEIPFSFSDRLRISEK
The assay can be described thus: MALT1 degradation assay (Western blot) in OCI-Ly3 cells. The assay is classed as cell-based. Conditions: 48 hours, normalized to Actin, relative to vehicle treated cells, read-out: % MALT1 Degradation at 1 μM. More on the design: endogenous in cells; host or cells: OCI-Ly3. The method, then:
In the experiments, OCI-Ly3 cells were grown for 6 hours in the presence of the indicated concentrations of Examples 1-6, 9, and 10. Proteins were extracted, analyzed by Western blot, and membranes were immunoblotted for MALT1, CRBN, and Actin. Table 3 provides the results of experimental data obtained from the example compounds of the present disclosure. In particular, OCI-Ly3 cells were grown for 48 hours in the presence of the indicated concentrations of Examples 1-19. Proteins were extracted, analyzed by Western blot, and membranes were immunoblotted for MALT1, CRBN, and Actin. Western blot bands were quantified using Image Lab software. Results were normalized to Actin expression and presented as % MALT1 degradation relative to vehicle treated cells.

Assay [2] concerns the target T1, MALT1. Description: Mechanistic validation of MALT1 degradation in wild type and CRBN knockout 293T cells (Western blot). The assay is classed as cell-based. More on the design: endogenous in cells. Conditions: wild type vs CRBN knockout 293T cells, 10 μM, 24 hours; FIG. 2. The method, then:
Wild type and CRBN knockout 293T cells were treated with 10 μM of Example 1 or vehicle for 24 hours, and protein lysates were collected. The protein was analyzed by Western blot and immunoassayed for MALT1, CRBN, and Actin.
Wild type and CRBN knockout 293T cells were treated with 10 μM of Example 1 or vehicle for 24 hours, and protein lysates were collected. 80 μg of protein were analyzed by Western blot and immunoassayed for MALT1, CRBN and Actin.
(In general: A western blot detects proteins with antibodies after separation by electrophoresis.)

In the case of `C[C@@H](c1c(NC(=O)Nc2cnc(-n3nccn3)c(Cl)c2)cnc2cc(Cl)nn12)N(C)C(=O)CCOCCOCCOCCOCCNc1cccc2c1C(=O)N(C1CCC(=O)NC1=O)C2=O` (stereo partly drawn) [Example 1, N—((S)-1-(2-Chloro-6-(3-(5-chloro-6-(2H-1,2,3-triazol-2-yl)pyridin-3-yl)ureido)pyrazolo[1,5-a]pyrimidin-7-yl)ethyl)-1-((2-(2,6-dioxopiperidin-3-yl)-1,3-dioxoisoindolin-4-yl)amino)-N-methyl-3,6,9,12-tetraoxapentadecan-15-amide], the % MALT1 degradation at 1 µM on MALT1 [1] was in the range of 31 to 50%. Moreover, the “CRBN-dependent MALT1 degradation” value at MALT1 [2] is recorded as “promoted CRBN-dependent MALT1 degradation”. For `C[C@@H](c1c(NC(=O)Nc2cnc(-n3nccn3)c(Cl)c2)cnc2cc(Cl)nn12)N(C)C(=O)CCOCCOCCOCCN1CCN(Cc2ccc(COc3cccc4c3CN([C@H]3CCC(=O)NC3=O)C4=O)cc2)CC1` [Example 17, N-((S)-1-(2-Chloro-6-(3-(5-chloro-6-(2H-1,2,3-triazol-2-yl)pyridin-3-yl)ureido)pyrazolo[1,5-a]pyrimidin-7-yl)ethyl)-3-(2-(2-(2-(4-(4-(((2-((S)-2,6-dioxopiperidin-3-yl)-1-oxoisoindolin-4-yl)oxy)methyl)benzyl)piperazin-1-yl)ethoxy)ethoxy)ethoxy)-N-methylpropanamide], the % MALT1 degradation at 1 µM at MALT1 [1] was over 50%. For `CO[C@@H](C)c1c(NC(=O)Nc2cnc(-n3cc(CNC(=O)CCOCCOCCOCCOCCNc4cccc5c4C(=O)N(C4CCC(=O)NC4=O)C5=O)cn3)c(Cl)c2)cnc2cc(Cl)nn12` (stereo partly drawn) [Example 2, N-((1-(3-Chloro-5-(3-(2-chloro-7-((S)-1-methoxyethyl)pyrazolo[1,5-a]pyrimidin-6-yl)ureido)pyridin-2-yl)-1H-pyrazol-4-yl)methyl)-1-((2-(2,6-dioxopiperidin-3-yl)-1,3-dioxoisoindolin-4-yl)amino)-3,6,9,12-tetraoxapentadecan-15-amide], the % MALT1 degradation at 1 µM at MALT1 [1] is over 50%.
